Data taken from patent publication US12162888B2, “Carboxamides as ubiquitin-specific protease inhibitors” (Valo Early Discovery, Inc., priority 2018, dated 2024).

target: T1, USP25 (USP25-His6, Boston Biochem E-546) (Homo sapiens, UniProt Q9UHP3); assay: Ubiquitin-Rhodamine 110 Assay for USP25 Activity, Example A-3; type: biochemical; conditions: Ubiquitin-Rhodamine 110 assay, Example A-3; read-out: USP25 A-3 IC50 range
T1 construct: His6 (C); purchased Boston Biochem E-546
T1 sequence (Q9UHP3 1-1055): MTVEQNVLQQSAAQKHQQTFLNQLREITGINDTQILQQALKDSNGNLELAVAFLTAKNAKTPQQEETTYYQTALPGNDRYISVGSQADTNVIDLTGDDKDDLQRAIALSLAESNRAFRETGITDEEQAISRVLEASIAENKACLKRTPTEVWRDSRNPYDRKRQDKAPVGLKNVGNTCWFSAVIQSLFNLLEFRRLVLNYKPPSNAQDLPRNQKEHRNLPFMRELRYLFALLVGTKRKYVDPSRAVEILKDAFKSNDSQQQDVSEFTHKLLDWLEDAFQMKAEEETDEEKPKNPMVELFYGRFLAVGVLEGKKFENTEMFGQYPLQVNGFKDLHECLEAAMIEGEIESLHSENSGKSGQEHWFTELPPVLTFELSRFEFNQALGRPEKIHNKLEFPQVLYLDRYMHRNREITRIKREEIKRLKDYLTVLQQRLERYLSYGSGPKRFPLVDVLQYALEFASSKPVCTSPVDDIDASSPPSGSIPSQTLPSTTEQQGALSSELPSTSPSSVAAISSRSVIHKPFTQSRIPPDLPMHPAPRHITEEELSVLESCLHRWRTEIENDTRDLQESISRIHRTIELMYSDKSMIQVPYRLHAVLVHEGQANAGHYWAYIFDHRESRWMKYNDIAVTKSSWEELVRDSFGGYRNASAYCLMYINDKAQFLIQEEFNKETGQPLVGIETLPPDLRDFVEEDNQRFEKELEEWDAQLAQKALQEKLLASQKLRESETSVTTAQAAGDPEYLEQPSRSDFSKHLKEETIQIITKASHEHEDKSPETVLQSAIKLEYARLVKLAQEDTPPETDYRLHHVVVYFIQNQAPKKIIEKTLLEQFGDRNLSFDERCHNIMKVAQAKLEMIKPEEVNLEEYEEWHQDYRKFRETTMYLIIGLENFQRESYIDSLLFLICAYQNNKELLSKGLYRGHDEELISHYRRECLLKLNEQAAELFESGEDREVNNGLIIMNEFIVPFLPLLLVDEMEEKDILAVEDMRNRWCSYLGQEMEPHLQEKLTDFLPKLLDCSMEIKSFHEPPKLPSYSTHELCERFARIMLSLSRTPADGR
Protocol: Example A-3: Biochemical Assay: Ubiquitin-Rhodamine 110 Assay for USP25 Activity
The assay was performed in a final volume of 9 μL in assay buffer containing 20 mM Tris-HCl (pH 8.0, (1M Tris-HCl, pH 8.0 solution; Corning 46-031-CM)), 3 mM BME (2-Mercaptoethanol; Sigma 63689-25ML-F), 0.03% BGG (0.22 μM filtered, Sigma, G7516-25G), and 0.01% Triton X-100 (Sigma, T9284-10L). Nanoliter quantities of 10-point, 3-fold serial dilution in DMSO was pre-dispensed into 1536 assay plates (Corning, #3724BC) for a final test concentration of 25 μM to 1.3 nM, top to lowest dose, respectively. Enzyme USP25, construct USP25-His6, (Boston Biochem E-546). Concentration and incubation times were optimized for the maximal signal-to-background while maintaining initial velocity conditions at a fixed substrate concentration. The final concentration of the enzyme in the assay was […]. Final substrate (Ub-Rh110; Ubiquitin-Rhodamine 110, R&D Systems #U-555) concentration was 25 nM with [Ub-Rh110]<<Km. 3 μL of 2× enzyme was added to assay plates (pre-stamped with compound) preincubated with […] for 30 minutes and then 3 μL of 2× Ub-Rh110 was added to assay plates. Plates were incubated for 45 minutes at room temperature before addition of 3 μL of stop solution (final concentration of 10 mM citric acid (Sigma, 251275-500G)). Fluorescence was read on the Envision (Excitation at 485 nm and Emission at 535 nm; Perkin Elmer) or on the PheraSTAR (Excitation at 485 nm and Emission at 535 nm; BMG Labtech).
For assay formats Example A-1(a), A-1(b), and A-2, data were reported as percent inhibition compared with control wells based on the following equation: % inh=1−((FLU−AveLow)/(AveHigh−AveLow)) where FLU=measured Fluorescence, AveLow=average Fluorescence of no enzyme control (n=16), and AveHighh=average Fluorescence of DMSO control (n=16). IC50 values were determined by curve fitting of the standard 4 parameter logistic fitting algorithm included in the Activity Base software package: IDBS XE Designer Model 205. Data is fitted using the Levenburg Marquardt algorithm.

First: Cc1ccc2c(N)c(C(=O)N[C@H]3CCc4nc(N5C[C@H](CF)[C@@H](N)C5)ccc4C3)sc2n1 [Example 384, 3-amino-N-[(6S)-2-[(3R,4S)-3-amino-4-(fluoromethyl)pyrrolidin-1-yl]-5,6,7,8-tetrahydroquinolin-6-yl]-6-methylthieno[2,3-b]pyridine-2-carboxamide]
Second: Cc1ccc2c(N)c(C(=O)N[C@H]3CCc4nc(N5C[C@@H](N)[C@H](C(F)(F)F)C5)ccc4C3)sc2n1 [Example 364, 3-amino-N-[(6S)-2-[(3S,4R)-3-amino-4-(trifluoromethyl)pyrrolidin-1-yl]-5,6,7,8-tetrahydroquinolin-6-yl]-6-methylthieno[2,3-b]pyridine-2-carboxamide]
The IC50 of the first is lower: 200 to 2000 nM for the first, over 2000 nM for the second.

First: CCn1ccc2cc(C(=O)N[C@H]3CCc4nc(N5C[C@@H](N)C6(COC6)C5)ccc4C3)cnc21 [Example 404, N-[(6S)-2-[(8S)-8-amino-2-oxa-6-azaspiro[3.4]octan-6-yl]-5,6,7,8-tetrahydroquinolin-6-yl]-1-ethyl-1H-pyrrolo[2,3-b]pyridine-5-carboxamide]
Second: CCn1ccc2cc(C(=O)N[C@H]3CCc4nc(N5C[C@H](C(F)F)[C@@H](N)C5)ccc4C3)cnc21 [Example 370, N-[(6S)-2-[(3R,4S)-3-amino-4-(difluoromethyl)pyrrolidin-1-yl]-5,6,7,8-tetrahydroquinolin-6-yl]-1-ethyl-1H-pyrrolo[2,3-b]pyridine-5-carboxamide]
The IC50 of the first is higher: over 2000 nM for the first, 200 to 2000 nM for the second.

First: Cc1ccc2c(N)c(C(=O)N[C@H]3CCc4nc(N5CC[C@]6(C5)OCC[C@@H]6N)ccc4C3)sc2n1 [Example 406, 3-amino-N-[(6S)-2-[(4S,5R)-4-amino-1-oxa-7-azaspiro[4.4]nonan-7-yl]-5,6,7,8-tetrahydroquinolin-6-yl]-6-methylthieno[2,3-b]pyridine-2-carboxamide]
Second: Cc1ccc2c(N)c(C(=O)N[C@H]3CCc4nc(N5CC[C@](N)(CO)C5)ccc4C3)sc2n1 [Example 386, 3-amino-N-[(6S)-2-[(3R)-3-amino-3-(hydroxymethyl)pyrrolidin-1-yl]-5,6,7,8-tetrahydroquinolin-6-yl]-6-methylthieno[2,3-b]pyridine-2-carboxamide]
The IC50 of the first is higher: over 2000 nM for the first, 200 to 2000 nM for the second. The second is the more potent here.

CCn1ccc2cc(C(=O)N[C@H]3CCc4nc(N5C[C@@H](N)[C@H](C(F)(F)F)C5)ccc4C3)cnc21 [Example 422, N-[(6S)-2-[(3S,4R)-3-amino-4-(trifluoromethyl)pyrrolidin-1-yl]-5,6,7,8-tetrahydroquinolin-6-yl]-1-ethyl-1H-pyrrolo[2,3-b]pyridine-5-carboxamide] and CN[C@@H]1CN(c2ccc3c(n2)CC[C@H](NC(=O)c2sc4nc(C)ccc4c2N)C3)C[C@H]1C(F)F [Example 377, 3-amino-N-[(6S)-2-[(3R,4S)-3-(difluoromethyl)-4-(methylamino)pyrrolidin-1-yl]-5,6,7,8-tetrahydroquinolin-6-yl]-6-methylthieno[2,3-b]pyridine-2-carboxamide] cannot be ordered by IC50: over 2000 nM for the first, over 2000 nM for the second.

Cc1ccc2c(N)c(C(=O)N[C@H]3CCc4nc(N5C[C@H]6COC[C@@H](C5)[C@H]6N)ccc4C3)sc2n1 [Example 396] and Cc1ccc2c(N)c(C(=O)N[C@H]3CCc4nc(N5C[C@H]6COC[C@@H](C5)[C@@H]6N)ccc4C3)sc2n1 [Example 397] fall in the same range of IC50: 200 to 2000 nM for the first, 200 to 2000 nM for the second.

Cc1ccc2c(N)c(C(=O)N[C@H]3CCc4nc(N5CC6(C[C@@H](N)CO6)C5)ccc4C3)sc2n1 [Example 398, 3-amino-N-[(6S)-2-[(7R)-7-amino-5-oxa-2-azaspiro[3.4]octan-2-yl]-5,6,7,8-tetrahydroquinolin-6-yl]-6-methylthieno[2,3-b]pyridine-2-carboxamide] and Cc1ccc2c(N)c(C(=O)N[C@H]3CCc4nc(N5CC6(C[C@H](N)CO6)C5)ccc4C3)sc2n1 [Example 399, 3-amino-N-[(6S)-2-[(7S)-7-amino-5-oxa-2-azaspiro[3.4]octan-2-yl]-5,6,7,8-tetrahydroquinolin-6-yl]-6-methylthieno[2,3-b]pyridine-2-carboxamide] fall in the same range of IC50: 200 to 2000 nM for the first, 200 to 2000 nM for the second.
